From US20230357134A1, “AGENTS FOR USE IN THE TREATMENT OF AMYLOIDOSIS” (UCL BUSINESS LTD, priority 2020, published 2023) come the findings set out here.

Molecules are shown by their SMILES.

For assay [1], the target named is T1, recombinant Val122Ile TTR (Homo sapiens, UniProt P02766, V142I).
T1 construct: the non-covalently associated protomers, of mass 13,761, each contain 127 residues; His6 (N); TEV cleavage site (N); made in house; host or cells: E. coli BL21 (DE3)
Nature of the assay: Mechano-enzymatic fibrillogenesis, TTR amyloid by ThT emission fluorescence. The note with it: equimolar ligand, 96 h pellets, normalized to 100 % without ligand, mean (SD). In kind it is biochemical. Here is the method: (§1) Briefly, fibrillogenesis of recombinant Val122Ile TTR at 0.5 mg/ml (9 μM) in PBS, pH 7.4 was carried out in glass vials stirred at 1,400 rpm (IKA magnetic stirrer) and 37° C. in the presence and in the absence of trypsin (5 ng/μl). […] Each ligand was tested at 4 different concentrations (4.5, 9, 18, 36 μM respectively) corresponding to the following drug/TTR molar ratios of 0.5:1, 1:1, 2:1 and 4:1. Several dilutions of the drug stock solutions were made in order to add the same volume of DMSO to each sample. Control samples without drug were added with the same volume of DMSO only. To allow complete binding of ligand by TTR each sample was incubated for 30 min at 37° C. before addition of trypsin. Spectrophotometric turbidity at 400 nm was used to monitor fibril formation over time until it reached a plateau at 96 h. Aggregation of TTR in the presence of equimolar ligand concentrations was quantified as spectrophotometric turbidity at 400 nm as a proportion of 100% for aggregation of the protein in the absence of ligands (Table 2).
At the end of the 96 h aggregation, pellets were harvested from each protein sample by 20 min centrifugation at 11,600 g, thoroughly rinsed with PBS to remove non-bound ligand, resuspended with 100 μl PBS, pH 7.4 containing 10 μM ThT in Costar 96-well black-wall plates. Bottom fluorescence values (excitation 440 nm, emission 480 nm) were recorded using a BMG LABTECH FLUostar Omega plate reader. Each value was normalized to the ThT signal of the TTR sample without ligand (Table 2)

The next assay deals with T2, isolated wild type TTR (Homo sapiens, UniProt P02766).
T2 construct: the non-covalently associated protomers, of mass 13,761, each contain 127 residues; His6 (N); TEV cleavage site (N); made in house; host or cells: E. coli BL21 (DE3)
Nature of the assay: Displacement of 125I-T4 from isolated wild type TTR in buffer. The note with it: concentration of ligand reducing binding of 125I-T4 by TTR by 50%; 125 nM TTR, pH 8.0, overnight 4° C.; mean of at least 3 replicates; read-out: D50 buffer. Here is the method: 3. Evaluation of Ligand Activity Based on Capacity to Displace ^125I-Thyroxine (T4) from TTR in Buffer/Human Plasma 3.1 Displacement of ^125I-T4 from Isolated Wild Type TR.
Competition of ligands with T4 for binding by TTR was assayed quantitatively by a previously described procedure (Kolstoe et al., 2010). Briefly, a solution of 125 nM TTR in 0.1 M Tris-HCl, 0.1 M NaCl and 0.001 M EDTA buffer, pH 8.0, was incubated overnight at 4° C. in the presence of 1.07 nM ^125I T4 (1,200 μCi/μg, 200 μCi/ml, Perkin Elmer) and increasing concentrations of inhibitor (0-5 μM) in 40 μl final volume. ^125I T4 bound by TTR was separated from unbound T4 by gel filtration chromatography using Micro Bio Spin 6 columns (Bio-Rad) previously equilibrated with the reaction buffer containing 1% w/v BSA. After counting with a Wizard2 gamma counter (Perkin-Elmer) for 60 s, percentage binding was plotted against the logarithm of the inhibitor concentration, and D50 (concentration of ligand reducing the binding of T4 by TTR by 50%) was determined using a four parameters dose-response curve with GraphPad Prism 5 (Table 1).

Assay [2] addresses T3, TTR in whole human plasma (Homo sapiens, UniProt P02766).
T3 construct: TTR in whole plasma, from individuals homozygous for wild type TTR; from tissue; host or cells: whole human plasma
Nature of the assay: Displacement of 125I-T4 from TTR in normal human plasma. Format: binding. The settings on record: wild type TTR, 30 min 37° C. with ligand, immunoprecipitation, mean of at least 3 replicates; for IC50: read-out: D50 plasma. Here is the method:
3.2 Displacement of ^125-T4 from TTR in Normal Human Plasma.
The displacement of ^125I-T4 from TTR in whole plasma, from individuals homozygous for wild type TTR, was studied by incubating plasma with each ligand at increasing concentrations for 30 min at 37° C., further incubation with […] followed by measurement of the radioactivity in the immunoprecipitate obtained with anti-TTR antibodies. […] Percentage binding was plotted against the logarithm of the inhibitor concentration, and D50 (concentration of ligand reducing the binding of T4 by TTR by 50%) was determined using a four parameter dose-response curve with GraphPad Prism 5 (Table 1).
For orientation: Loss of bound radioactivity is the signal in a displacement assay; it reports binding, not function.

The target in assay [3] is T1, recombinant Val122Ile TTR. Nature of the assay: Mechano-enzymatic fibrillogenesis, TTR aggregation by turbidity at 400 nm. Format: biochemical. The note with it: equimolar ligand, Val122Ile TTR 9 μM, trypsin, 96 h; 100 % = protein without ligand; mean (SD). Here is the method: as §1

In the case of `Cc1n[nH]c(COCCCCOCCOc2c(Cl)cc(CCC(=O)O)cc2Cl)c1CCCOc1cc(C(=O)O)ccc1F` [Compound B10, 3-[3-[5-[4-[2-[4-(2-carboxyethyl)-2,6-dichloro-phenoxy]ethoxy]butoxymethyl]-3-methyl-1H-pyrazol-4-yl]propoxy]-4-fluoro-benzoic acid], the “% Aggregation (Fluorescence method)” value in assay [1] was 16.6 (nd) %. Further, the IC50 at isolated wild type TTR was 5600 nM. The D50 plasma entry in assay [2] is “no binding”. Moreover, the “% Aggregation (Turbidity method)” value in assay [3] is 14.88 (nd) %.
In the case of `O=C(O)CCc1cc(Cl)c(OCCCOCCCOc2ccc(-c3nc4ccc(C(=O)O)cc4o3)cc2Cl)c(Cl)c1` [Compound B15, 2-[4-[3-[3-[4-(2-carboxyethyl)-2,6-dichloro-phenoxy]propoxy]propoxy]-3-chlorophenyl]-1,3-benzoxazole-6-carboxylic acid], in assay [1], the “% Aggregation (Fluorescence method)” value is listed as 12.7 (5.73) %. The IC50 on isolated wild type TTR is 100 nM; in assay [2] it was 61000 nM. Further, the “% Aggregation (Turbidity method)” value in assay [3] is given as 5.56 (0.75) %.
The matching figures for `O=C(O)CCc1cc(Cl)c(OCC[C@@H](O)[C@H](O)CCOc2ccc(-c3nc4ccc(C(=O)O)cc4o3)cc2Cl)c(Cl)c1` [Compound B17, 2-[4-[(3R,4R)-6-[4-(2-carboxyethyl)-2,6-dichloro-phenoxy]-3,4-dihydroxy-hexoxy]-3-chloro-phenyl]-1,3-benzoxazole-6-carboxylic acid]: 3.86 (2.29) %, 100 nM, 17300 nM and 4.52 (1.08) %.
Consider `O=C(O)CCc1ccc(OCCCOCCCOc2ccc(-c3nc4ccc(C(=O)O)cc4o3)cc2Cl)c(Cl)c1` [Compound B18, 2-[4-[3-[3-[4-(2-carboxyethyl)-2-chloro-phenoxy]propoxy]propoxy]-3-chloro-phenyl]-1,3-benzoxazole-6-carboxylic acid], for which the “% Aggregation (Fluorescence method)” value in assay [1] is 2.45 (1.39) %. The IC50 on isolated wild type TTR was 210 nM; in assay [2] it was more than 100000 nM. In addition, the “% Aggregation (Turbidity method)” value in assay [3] is given as 3.31 (0.68) %.
For `O=C(O)CCc1ccc(OCCCOCCCOc2c(Cl)cc(-c3nc4ccc(C(=O)O)cc4o3)cc2Cl)c(Cl)c1` [Compound B19, 2-[4-[3-[3-[4-(2-carboxyethyl)-2-chloro-phenoxy]propoxy]propoxy]-3,5-dichloro-phenyl]-1,3-benzoxazole-6-carboxylic acid], the “% Aggregation (Fluorescence method)” value in assay [1] is 7.27 (1.17) %. Moreover, the IC50 is 160 nM on isolated wild type TTR and more than 100000 nM in assay [2]. Moreover, the “% Aggregation (Turbidity method)” value in assay [3] is reported as 3.99 (0.928) %.
On to `O=C(O)CCc1cc(Cl)c(OCC[C@@H](O)[C@H](O)CCOc2ccc(Nc3ccccc3C(=O)O)cc2Cl)c(Cl)c1` [Compound B20, 2-[4-[(3R,4R)-6-[4-(2-carboxyethyl)-2,6-dichloro-phenoxy]-3,4-dihydroxy-hexoxy]-3-chloro-anilino]benzoic acid], for which the “% Aggregation (Fluorescence method)” value in assay [1] is recorded as 8.54 (6.10) %. Besides, the values for the IC50 (at isolated wild type TTR; in assay [2]) were 70 nM and 7000 nM, respectively. In addition, the “% Aggregation (Turbidity method)” value in assay [3] is recorded as 11.6 (8.30) %.
Turning to `O=C(O)CCc1ccc(OCC[C@@H](O)[C@H](O)CCOc2c(Cl)cc(Nc3ccccc3C(=O)O)cc2Cl)c(Cl)c1` [Compound B21, 2-[4-[6-[4-(2-carboxyethyl)-2-chloro-phenoxy]-3,4-dihydroxy-hexoxy]-3,5-dichloro-anilino]benzoic acid], the “% Aggregation (Fluorescence method)” value in assay [1] is listed as 8.31 (6.09) %. Besides, the values for the IC50 (on isolated wild type TTR; in assay [2]) were 70 nM and 4100 nM, respectively. For the same compound, in assay [3], the “% Aggregation (Turbidity method)” value is 6.43 (3.09) %.
In the case of `O=C(O)CCc1ccc(OCC[C@@H](O)[C@H](O)CCOc2ccc(Nc3ccccc3C(=O)O)cc2Cl)c(Cl)c1` [Compound B22, 2-[4-[(3R,4R)-6-[4-(2-carboxyethyl)-2-chloro-phenoxy]-3,4-dihydroxy-hexoxy]-3-chloro-anilino]benzoic acid], the “% Aggregation (Fluorescence method)” value in assay [1] is on record as 15.5 (3.25) %. Also, the IC50 at isolated wild type TTR amounted to 70 nM; in assay [2], 6400 nM. The “% Aggregation (Turbidity method)” value in assay [3] is on record as 6.43 (2.12) %.
Take `O=C(O)CCc1cc(Cl)c(OCCCOCCOc2c(Cl)cc(Nc3cnncc3C(=O)O)cc2Cl)c(Cl)c1` [Compound B24, 5-[4-[2-[3-[4-(2-carboxyethyl)-2,6-dichloro-phenoxy]propoxy]ethoxy]-3,5-dichloro-anilino]pyridazine-4-carboxylic acid]: the “% Aggregation (Fluorescence method)” value in assay [1] was 10.6 (10.5) %. Moreover, the IC50 on isolated wild type TTR was determined as 140 nM; in assay [2], 7600 nM. The “% Aggregation (Turbidity method)” value in assay [3] is reported as 6.60 (2.40) %.
As to `O=C(O)CCc1cc(Cl)c(OCCCOCCOc2c(Cl)cc(-c3nc4ccc(C(=O)O)cc4o3)cc2Cl)c(Cl)c1` [Compound B28, 2-[4-[2-[3-[4-(2-carboxyethyl)-2,6-dichloro-phenoxy]propoxy]ethoxy]-3,5-dichloro-phenyl]-1,3-benzoxazole-6-carboxylic acid], the “% Aggregation (Fluorescence method)” value in assay [1] is reported as 24.5 (8.90) %. In addition, the IC50 at isolated wild type TTR was found to be 80 nM; in assay [2] it was 20000 nM. Besides, the “% Aggregation (Turbidity method)” value in assay [3] is listed as 9.30 (4.32) %.
For `O=C(O)CCc1cc(Cl)c(OCCOCCCOc2c(Cl)cc(-c3nc4ccc(C(=O)O)cc4o3)cc2Cl)c(Cl)c1` [Compound B29, 2-[4-[3-[2-[4-(2-carboxyethyl)-2,6-dichloro-phenoxy]ethoxy]propoxy]-3,5-dichloro-phenyl]-1,3-benzoxazole-6-carboxylic acid], the “% Aggregation (Fluorescence method)” value in assay [1] was 19.2 (13.0) %. Also, the IC50 was 80 nM on isolated wild type TTR and 3600 nM in assay [2]. Further, the “% Aggregation (Turbidity method)” value in assay [3] was 7.62 (3.39) %.
